Values after ≈ are worked out from the molar mass of the structure shown. Like-named read-outs stand apart in the source and are kept apart here.
Tests used:
[1] = system: Staphylococcus aureus MSSA CIP 4.83; test: Antibacterial activity (MIC/MBC); assay type: cell-based; conditions: S. aureus MSSA CIP 4.83
[2] = system: S. pneumoniae PRSP CIP 104471; test: Antibacterial activity (MIC/MBC); assay type: cell-based, Streptococcus pneumoniae
[3] = system: S. pneumoniae PRSP clinical isolate; test: Antibacterial activity (MIC/MBC); assay type: cell-based, Streptococcus pneumoniae
[4] = system: E. faecalis VRE CIP 104676; test: Antibacterial activity (MIC/MBC); assay type: cell-based, Enterococcus faecalis; conditions: E. faecalis VRE CIP 104676
H. influenzae CIP 102514 = test: Antibacterial activity (MIC/MBC); assay type: cell-based, Haemophilus influenzae
[5] = system: Human lung fibroblast cells (ATCC CCL-171); test: Cytotoxicity (MTT) assay; conditions: for % of survival cells compared to the untreated controls: 18 hr treatment
Experimental: Cellular toxicity was measured by a colorimetric assay that makes use of the tetrazolium salt, MTT. Human lung fibroblast cells (ATCC CCL-171) were plated in 96-well plates at 10^4 cells per well and incubated under 5% CO2 at 37° C. for 24 hr to allow adherence of cells to the plate. Test compounds were prepared as a stock solution at 1 mg/mL in 1% DMSO/water and diluted with water for the serial dilutions (500-7.8 μg/mL). Cells underwent a 18 hr treatment under 5% CO2 at 37° C. with experimental drugs. Corresponding controls received either no drug treatment or treatment with SDS (sodium dodecyl sulfate). The optical density of each sample was read on a microplate spectrophotometer reader at 600 nm and cell survival was expressed as a fraction of that of untreated controls. A drug is said cytotoxic when this fraction is ≦−30%

[6] = Staphylococcus aureus, read-out: MBC
[7] = Staphylococcus aureus, read-out: MIC
[8] = Streptococcus pneumoniae, read-out: MIC
[9] = Streptococcus pneumoniae, PRSP, read-out: MIC
[10] = Enterococcus faecalis, read-out: MIC
[11] = Haemophilus influenzae, CIP102514

Row | SMILES | MBC [1, 6] | MIC [1, 7] | MBC ([2]; Streptococcus pneumoniae) | MIC [2, 8] | MBC ([3]; Streptococcus pneumoniae) | MIC [3, 9] | MBC ([4]; Enterococcus faecalis) | MIC [4, 10] | MBC (H. influenzae CIP 102514; [11]) | MIC (H. influenzae CIP 102514; [11]) | MIC [1] | also measured
1 | CC(=O)OCC1=C(C(=O)O)N2C(=O)[C@@H](NC(=O)CCNc3ccnc4cc(Cl)ccc34)[C@H]2SC1 [PA 1037] | > 50 µg/mL | 0.39 µg/mL (≈ 0.772 µM) | 3.12 µg/mL (≈ 6.18 µM) | 1.56 µg/mL (≈ 3.09 µM) | 6.25 µg/mL (≈ 12.4 µM) | 3.12 µg/mL (≈ 6.18 µM) | 25 µg/mL (≈ 49.5 µM) | 6.25 µg/mL (≈ 12.4 µM) | 25 µg/mL (≈ 49.5 µM) | 6.25 µg/mL (≈ 12.4 µM) |  | 
2 | CC1(C)S[C@@H]2[C@H](NC(=O)Cc3ccccc3)C(=O)N2[C@H]1C(=O)O [Penicillin G, reference compound] |  |  |  |  |  |  |  |  |  |  | 0.008 µg/mL (≈ 0.0239 µM) | MBC [1]: 0.06 µg/mL (≈ 0.179 µM)
3 | CC(C)(C)C(=O)OCOC(=O)[C@@H]1N2C(=O)[C@@H](NC(=O)C3CCN(c4ccnc5cc(Cl)ccc45)CC3)[C@H]2SC1(C)C [PA 1007, (2S,5R,6R)-6-{[1-(7-Chloroquinolin-4-yl)-piperidine-4-carbonyl]-amino}-3,3-dimethyl-7-oxo-4-thia-1-aza-bicyclo[3.2.0]heptane-2-carboxylic acid 2,2-dimethyl-propionyloxymethyl ester] | 0.49 µg/mL (≈ 0.812 µM) | 0.012 µg/mL (≈ 0.0199 µM) |  |  |  |  |  |  |  |  |  | 
4 | CC(=O)OCC1=C(C(=O)O)N2C(=O)[C@@H](NC(=O)CNc3ccnc4cc(Cl)ccc34)[C@H]2[S+]([O-])C1 (stereo partly drawn) [PA 1092, (6R,7R-3-Acetoxymethyl-7-[2-7-chloroquinolin-4-ylamino)acetylamino]-5,8-dioxo-5λ^1-thia-1-aza-bicyclo[4.2.0]oct-2-ene-2-carboxylic acid] | > 50 µg/mL | 12.5 µg/mL (≈ 24.7 µM) | 3.12 µg/mL (≈ 6.15 µM) | 1.56 µg/mL (≈ 3.08 µM) | 12.5 µg/mL (≈ 24.7 µM) | 6.25 µg/mL (≈ 12.3 µM) | > 50 µg/mL | > 50 µg/mL | 50 µg/mL (≈ 98.6 µM) | 12.5 µg/mL (≈ 24.7 µM) |  | 
5 | CC(=O)OCC1=C(C(=O)O)N2C(=O)[C@@H](N)[C@H]2SC1 [7-ACA, 7-aminocephalosporanic acid, reference compound] |  |  |  |  |  |  |  |  |  |  | 50 µg/mL (≈ 184 µM) | MIC [2]: 50 µg/mL (≈ 184 µM); MIC [3]: 50 µg/mL (≈ 184 µM); MIC [4]: >50 µg/mL; MIC (H. influenzae CIP 102514; H. influenzae CIP 102514): 50 µg/mL (≈ 184 µM)
6 | CCCCCCCCCCCCOS(=O)(=O)[O-].[Na+] [SDS, sodium dodecyl sulfate, reference compound] |  |  |  |  |  |  |  |  |  |  |  | % of survival cells compared to the untreated controls ([5]; 7.8 μg/mL): +2.1%; % of survival cells compared to the untreated controls ([5]; 15.6 μg/mL): −7.0%; % of survival cells compared to the untreated controls ([5]; 31.2 μg/mL): −16.4%; % of survival cells compared to the untreated controls ([5]; 62.5 μg/mL): −77.9%; % of survival cells compared to the untreated controls ([5]; 125 μg/mL): −81.2%; % of survival cells compared to the untreated controls ([5]; 250 μg/mL): −81.1%; % of survival cells compared to the untreated controls ([5]; 500 μg/mL): −83.0%; concentration at which the threshold of cytotoxicity (−30%) is exceeded ([5]; human, 18 hr): ≥ 31.2 µg/mL; human lung fibroblast cells killed ([5]; human, 18 hr): more than 80%

Source: patent publication US20070060558A1 (PALUMED S.A., priority 2004, published 2007)
